Reference: article PMC9233935 (Journal of medicinal chemistry, 2022)
In brackets after ≈: the same amount, converted by molar mass. Like-named read-outs stand apart in the source and are kept apart here.

Experiments:
Mtb gyrase = Mtb gyrase (Mycobacterium tuberculosis, UniProt P9WG45+P9WG47); experiment: biochemical; format: biochemical
M. tuberculosis H37Rv = experiment: microbe, parasite or virus in culture; format: cell-based, Mycobacterium tuberculosis; conditions: for MIC: Mycobacterium tuberculosis, H37RV, read-out: Mtb MIC

Mtb gyrase, sequence (P9WG45 whole entry, looked up): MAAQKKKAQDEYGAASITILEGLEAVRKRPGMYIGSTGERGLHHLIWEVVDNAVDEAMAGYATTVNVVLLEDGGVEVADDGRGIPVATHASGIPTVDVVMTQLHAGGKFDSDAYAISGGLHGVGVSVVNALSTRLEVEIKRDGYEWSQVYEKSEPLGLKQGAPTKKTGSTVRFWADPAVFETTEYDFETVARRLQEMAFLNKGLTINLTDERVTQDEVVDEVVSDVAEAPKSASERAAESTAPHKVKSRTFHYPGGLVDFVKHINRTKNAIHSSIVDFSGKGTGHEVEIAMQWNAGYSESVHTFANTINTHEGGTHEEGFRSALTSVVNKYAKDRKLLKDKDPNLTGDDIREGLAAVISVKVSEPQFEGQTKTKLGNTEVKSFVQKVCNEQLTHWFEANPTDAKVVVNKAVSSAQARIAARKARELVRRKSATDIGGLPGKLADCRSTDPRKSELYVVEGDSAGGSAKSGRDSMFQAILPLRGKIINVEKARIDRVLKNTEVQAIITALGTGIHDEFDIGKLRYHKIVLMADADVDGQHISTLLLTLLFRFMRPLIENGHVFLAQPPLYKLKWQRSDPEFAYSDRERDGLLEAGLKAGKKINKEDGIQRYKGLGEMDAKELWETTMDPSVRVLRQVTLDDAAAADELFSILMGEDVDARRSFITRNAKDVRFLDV
Mtb gyrase, sequence (P9WG47 whole entry, looked up): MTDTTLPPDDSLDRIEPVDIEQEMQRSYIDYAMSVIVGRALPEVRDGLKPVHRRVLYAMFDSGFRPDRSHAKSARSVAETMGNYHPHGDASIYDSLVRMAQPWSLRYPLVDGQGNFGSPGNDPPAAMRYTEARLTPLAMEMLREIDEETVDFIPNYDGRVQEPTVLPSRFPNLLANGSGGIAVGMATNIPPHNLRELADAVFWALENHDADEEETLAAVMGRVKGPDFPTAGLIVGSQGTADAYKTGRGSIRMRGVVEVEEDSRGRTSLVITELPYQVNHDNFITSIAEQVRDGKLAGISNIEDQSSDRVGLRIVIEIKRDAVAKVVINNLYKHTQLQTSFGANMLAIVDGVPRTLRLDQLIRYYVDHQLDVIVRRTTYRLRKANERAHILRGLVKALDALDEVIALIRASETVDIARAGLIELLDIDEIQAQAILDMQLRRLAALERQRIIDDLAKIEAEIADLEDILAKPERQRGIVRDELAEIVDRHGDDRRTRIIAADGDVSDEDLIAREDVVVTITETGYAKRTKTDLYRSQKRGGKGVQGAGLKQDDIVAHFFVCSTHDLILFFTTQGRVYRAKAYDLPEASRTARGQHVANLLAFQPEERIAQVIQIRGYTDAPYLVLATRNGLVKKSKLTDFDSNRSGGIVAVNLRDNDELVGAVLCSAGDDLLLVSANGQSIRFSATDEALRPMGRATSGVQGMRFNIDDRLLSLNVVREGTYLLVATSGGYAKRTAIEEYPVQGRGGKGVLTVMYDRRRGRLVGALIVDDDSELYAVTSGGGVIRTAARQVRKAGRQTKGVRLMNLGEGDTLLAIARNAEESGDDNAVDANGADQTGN

For `C[C@@H]1CN2c3c(cc4c(N5CC[C@H](CO)C5)noc4c3F)CC3(C(=O)NC(=O)NC3=O)[C@H]2[C@H](C)O1` [Compound 14, (2R,4S,4aS)-11-fluoro-8-((S)-3-(hydroxymethyl)pyrrolidin-1-yl)-2,4-dimethyl-1,2,4,4a-tetrahydro-2’H,6H-spiro[isoxazolo[4,5-g][1,4]oxazino[4,3-a]quinoline-5,5’-pyrimidine]-2’,4’,6’(1’H,3’H)-trione], the “Mtb gyrase IC50 fold higher (less potent) than moxifloxacin” value (Mtb gyrase) was ≤ 2 fold.

In the case of `C[C@@H]1CN2c3c(cc4c(N5CC[C@@](C)(O)C5)noc4c3F)CC3(C(=O)NC(=O)NC3=O)[C@H]2[C@H](C)O1` [Compound 15, 11-fluoro-8-(3-hydroxy-3-methylpyrrolidin-1-yl)-2,4-dimethyl-1,2,4,4a-tetrahydro-2’H,6H-spiro[isoxazolo[4,5-g][1,4]oxazino[4,3-a]quinoline-5,5’-pyrimidine]-2’,4’,6’(1’H,3’H)-trione], the MIC (M. tuberculosis H37Rv; 192 h) is reported as > 125 µM.

In the case of `C[C@@H]1CN2c3c(cc4c(N5CC[C@H](C#N)C5)noc4c3F)CC3(C(=O)NC(=O)NC3=O)[C@H]2[C@H](C)O1` [Compound 19, (S)-1-((2R,4S,4aS)-11-fluoro-2,4-dimethyl-2’,4’,6’-trioxo-1,1’,2,3’,4,4a,4’,6’-octahydro-2’H,6H-spiro[isoxazolo[4,5-g][1,4]oxazino[4,3-a]quinoline-5,5’-pyrimidin]-8-yl)pyrrolidine-3-carbonitrile], the “Mtb gyrase IC50 fold higher (less potent) than moxifloxacin” value (Mtb gyrase) is reported as ≤ 2 fold.

With `C[C@@H]1CN2c3c(cc4c(OC[C@@H]5CCC(=O)N5C)noc4c3F)CC3(C(=O)NC(=O)NC3=O)[C@H]2[C@H](C)O1` [Compound 25, (2R,4S,4aS)-11-fluoro-2,4-dimethyl-8-(((S)-1-methyl-5-oxopyrrolidin-2-yl)methoxy)-1,2,4,4a-tetrahydro-2’H,6H-spiro[isoxazolo[4,5-g][1,4]oxazino[4,3-a]quinoline-5,5’-pyrimidine]-2’,4’,6’(1’H,3’H)-trione] the “fold less active against Mtb than 23” value (M. tuberculosis H37Rv) was 4 fold.

`C[C@@H]1CN2c3c(cc4c(OC[C@@H]5CCC(=O)O5)noc4c3F)CC3(C(=O)NC(=O)NC3=O)[C@H]2[C@H](C)O1` [Compound 26, (2R,4S,4aS)-11-fluoro-2,4-dimethyl-8-(((S)-5-oxotetrahydrofuran-2-yl)methoxy)-1,2,4,4a-tetrahydro-2’H,6H-spiro[isoxazolo[4,5-g][1,4]oxazino[4,3-a]quinoline-5,5’-pyrimidine]-2’,4’,6’(1’H,3’H)-trione] was tested, and the “fold less active against Mtb than 23” value (M. tuberculosis H37Rv) was 2- to 4 fold.

With `C[C@@H]1CN2c3c(cc4c(OC[C@H]5CCC(=O)O5)noc4c3F)CC3(C(=O)NC(=O)NC3=O)[C@H]2[C@H](C)O1` [Compound 27, (2R,4S,4aS)-11-fluoro-2,4-dimethyl-8-(((R)-5-oxotetrahydrofuran-2-yl)methoxy)-1,2,4,4a-tetrahydro-2’H,6H-spiro[isoxazolo[4,5-g][1,4]oxazino[4,3-a]quinoline-5,5’-pyrimidine]-2’,4’,6’(1’H,3’H)-trione] the “fold less active against Mtb than 23” value (M. tuberculosis H37Rv) was 2- to 4 fold.

With `C[C@@H]1CN2c3c(cc4c(OC[C@H]5COC(=O)N5)noc4c3F)CC3(C(=O)NC(=O)NC3=O)[C@H]2[C@H](C)O1` [Compound 29, (2R,4S,4aS)-11-fluoro-2,4-dimethyl-8-(((S)-2-oxooxazolidin-4-yl)methoxy)-1,2,4,4a-tetrahydro-2’H,6H-spiro[isoxazolo[4,5-g][1,4]oxazino[4,3-a]quinoline-5,5’-pyrimidine]-2’,4’,6’(1’H,3’H)-trione] the “Mtb MIC” value (M. tuberculosis H37Rv) was 2.0 µM and the MIC (M. tuberculosis H37Rv) was 2 µM (≈ 1.01 µg/mL).

With `C[C@@H]1CN2c3c(cc4c(OC[C@H]5CNC(=O)C5)noc4c3F)CC3(C(=O)NC(=O)NC3=O)[C@H]2[C@H](C)O1` [Compound 31, (2R,4S,4aS)-11-fluoro-2,4-dimethyl-8-(((R)-5-oxopyrrolidin-3-yl)methoxy)-1,2,4,4a-tetrahydro-2’H,6H-spiro[isoxazolo[4,5-g][1,4]oxazino[4,3-a]quinoline-5,5’-pyrimidine]-2’,4’,6’(1’H,3’H)-trione] the “Mtb MIC” value (M. tuberculosis H37Rv) was 2.0 µM and the MIC (M. tuberculosis H37Rv) was 2 µM (≈ 1 µg/mL).

`C[C@@H]1CN2c3c(cc4c(OCC[C@@H]5CCC(=O)N5)noc4c3F)CC3(C(=O)NC(=O)NC3=O)[C@H]2[C@H](C)O1` [Compound 32, (2R,4S,4aS)-11-fluoro-2,4-dimethyl-8-(2-((S)-5-oxopyrrolidin-2-yl)ethoxy)-1,2,4,4a-tetrahydro-2’H,6H-spiro[isoxazolo[4,5-g][1,4]oxazino[4,3-a]quinoline-5,5’-pyrimidine]-2’,4’,6’(1’H,3’H)-trione] was tested, and the “fold less active against Mtb than 23” value (M. tuberculosis H37Rv) was ~ 4 fold.

Compound `C[C@@H]1CN2c3c(cc4c(N5C(=O)OC[C@@H]5C)noc4c3F)CC3(C(=O)NC(=O)NC3=O)[C@H]2[C@H](C)N1O` [Compound 35, (2R,4S,4aS)-11-fluoro-3-hydroxy-2,4-dimethyl-8-((S)-4-methyl-2-oxooxazolidin-3-yl)-2,3,4,4a-tetrahydro-1H,2’H,6H-spiro[isoxazolo[4,5-g]pyrazino[1,2-a]quinoline-5,5’-pyrimidine]-2’,4’,6’(1’H,3’H)-trione] has an IC50 (Mtb gyrase) of 207 µM.

`CC(=O)N1[C@H](C)CN2c3c(cc4c(N5C(=O)OC[C@@H]5C)noc4c3F)CC3(C(=O)NC(=O)NC3=O)[C@H]2[C@@H]1C` [Compound 36, (2R,4S,4aS)-3-acetyl-11-fluoro-2,4-dimethyl-8-((S)-4-methyl-2-oxooxazolidin-3-yl)-2,3,4,4a-tetrahydro-1H,2’H,6H-spiro[isoxazolo[4,5-g]pyrazino[1,2-a]quinoline-5,5’-pyrimidine]-2’,4’,6’(1’H,3’H)-trione] was tested, and the IC50 (Mtb gyrase) was > 1000 µM.

In the case of `C[C@@H]1CN2c3c(cc4c(N5C(=O)OC[C@@H]5C)noc4c3F)CC3(C(=O)NC(=O)NC3=O)[C@H]2[C@H](C)N1C#N` [Compound 38, (2R,4S,4aS)-11-fluoro-2,4-dimethyl-8-((S)-4-methyl-2-oxooxazolidin-3-yl)-2’,4’,6’-trioxo-1,1’,2,3’,4,4a,4’,6’-octahydro-2’H,3H,6H-spiro[isoxazolo[4,5-g]pyrazino[1,2-a]quinoline-5,5’-pyrimidine]-3-carbonitrile], the “fold more active against Mtb than matched pair zoliflodacin” value (M. tuberculosis H37Rv) is reported as ~2 fold.

`C[C@@H]1CN2c3c(cc4c(-n5cncn5)noc4c3F)CC3(C(=O)NC(=O)NC3=O)[C@H]2[C@H](C)N1C#N` [Compound 39, 11-fluoro-2,4-dimethyl-2’,4’,6’-trioxo-8-(1H-1,2,4-triazol-1-yl)-1,1’,2,3’,4,4a,4’,6’-octahydro-2’H,3H,6H-spiro[isoxazolo[4,5-g]pyrazino[1,2-a]quinoline-5,5’-pyrimidine]-3-carbonitrile] was tested, and the “fold more active against Mtb than matched pair 7” value (M. tuberculosis H37Rv) was 2 fold and the MIC (M. tuberculosis H37Rv; 192 h) was 0.9 µM (≈ 0.431 µg/mL).

In the case of `Cc1nnc(-c2noc3c(F)c4c(cc23)CC2(C(=O)NC(=O)NC2=O)[C@H]2[C@H](C)[C@@H](O)[C@H](C)CN42)o1` [Compound 45, (2R,3S,4S,4aR)-11-fluoro-3-hydroxy-2,4-dimethyl-8-(5-methyl-1,3,4-oxadiazol-2-yl)-2,3,4,4a-tetrahydro-1H,2’H,6H-spiro[isoxazolo[4,5-g]pyrido[1,2-a]quinoline-5,5’-pyrimidine]-2’,4’,6’(1’H,3’H)-trione], the “fold reduction in Mtb activity relative to matched pair 5” value (M. tuberculosis H37Rv) is reported as 10 fold.

In the case of `C[C@@H]1CN2c3c(cc4c(N5C(=O)OC[C@@H]5C)noc4c3F)CC3(C(=O)NC(=O)NC3=O)[C@H]2[C@H](C)O1` [Zoliflodacin 4, zoliflodacin, reference compound], the MIC (M. tuberculosis H37Rv) is reported as 7 µM (≈ 3.41 µg/mL).
